This note sets out measurements from ChEMBL document CHEMBL1201862, “PubChem BioAssay data set” (2004).

Activity calls are given as the source filed them. Where only a bound is given, the exact number is not on record here.

Usually EC50 stands for the concentration that produces a half-maximal response. One may read the AC50 as the midpoint of the concentration-response curve, whichever way the signal moves. As a reminder, the IC50 is the point on the concentration scale where inhibition reaches its midpoint.

Experiment [1] addresses Neurotensin receptor type 1 (Homo sapiens, UniProt P30989). Type of experiment: functional.
In another experiment the target is Cytochrome P450 2C19 (Homo sapiens, UniProt P33261). Description: Cytochrome panel assay with activity outcomes. Panel member name: p450-cyp2c19 Compounds with AC50 equal or less than 10 uM are considered active. Type of experiment: functional. Conditions: read-out: AC50.
A further experiment has as its target T1, Cytochrome P450 1A2 (Homo sapiens, UniProt P05177).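 Also: PubChem cytochrome P450 panel assay, CYP1A2 panel member.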
T1 sequence (P05177 whole entry): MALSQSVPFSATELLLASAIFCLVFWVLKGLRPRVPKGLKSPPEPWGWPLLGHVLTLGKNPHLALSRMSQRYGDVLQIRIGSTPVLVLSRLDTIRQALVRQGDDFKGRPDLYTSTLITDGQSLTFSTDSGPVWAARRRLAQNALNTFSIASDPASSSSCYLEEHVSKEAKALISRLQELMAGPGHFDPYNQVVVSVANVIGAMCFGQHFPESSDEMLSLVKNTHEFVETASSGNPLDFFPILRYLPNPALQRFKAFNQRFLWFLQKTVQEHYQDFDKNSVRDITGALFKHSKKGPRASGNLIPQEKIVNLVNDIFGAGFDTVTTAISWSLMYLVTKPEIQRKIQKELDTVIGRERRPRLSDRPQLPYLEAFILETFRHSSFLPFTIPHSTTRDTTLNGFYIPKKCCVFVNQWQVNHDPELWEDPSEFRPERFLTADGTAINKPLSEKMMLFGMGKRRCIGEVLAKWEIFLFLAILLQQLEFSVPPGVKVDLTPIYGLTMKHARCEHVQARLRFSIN

The next experiment deals with Cytochrome P450 2C9 (Homo sapiens, UniProt P11712).
Chain of Cytochrome P450 2C9 (P11712 whole entry): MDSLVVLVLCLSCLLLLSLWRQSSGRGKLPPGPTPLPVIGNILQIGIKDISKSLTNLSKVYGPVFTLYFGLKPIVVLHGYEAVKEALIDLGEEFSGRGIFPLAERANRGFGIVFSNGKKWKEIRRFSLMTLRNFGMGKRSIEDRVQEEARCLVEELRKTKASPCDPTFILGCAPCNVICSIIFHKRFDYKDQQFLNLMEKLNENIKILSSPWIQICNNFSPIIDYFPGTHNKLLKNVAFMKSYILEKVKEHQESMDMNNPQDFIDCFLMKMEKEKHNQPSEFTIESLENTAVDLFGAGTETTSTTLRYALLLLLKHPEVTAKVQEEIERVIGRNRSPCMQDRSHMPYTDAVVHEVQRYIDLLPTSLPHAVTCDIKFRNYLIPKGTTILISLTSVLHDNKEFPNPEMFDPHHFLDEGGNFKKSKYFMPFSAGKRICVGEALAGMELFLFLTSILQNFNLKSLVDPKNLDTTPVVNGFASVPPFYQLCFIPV
The target in the next experiment is T2, Mucolipin-3 (Homo sapiens, UniProt Q8TDD5).
T2 sequence (Q8TDD5 whole entry): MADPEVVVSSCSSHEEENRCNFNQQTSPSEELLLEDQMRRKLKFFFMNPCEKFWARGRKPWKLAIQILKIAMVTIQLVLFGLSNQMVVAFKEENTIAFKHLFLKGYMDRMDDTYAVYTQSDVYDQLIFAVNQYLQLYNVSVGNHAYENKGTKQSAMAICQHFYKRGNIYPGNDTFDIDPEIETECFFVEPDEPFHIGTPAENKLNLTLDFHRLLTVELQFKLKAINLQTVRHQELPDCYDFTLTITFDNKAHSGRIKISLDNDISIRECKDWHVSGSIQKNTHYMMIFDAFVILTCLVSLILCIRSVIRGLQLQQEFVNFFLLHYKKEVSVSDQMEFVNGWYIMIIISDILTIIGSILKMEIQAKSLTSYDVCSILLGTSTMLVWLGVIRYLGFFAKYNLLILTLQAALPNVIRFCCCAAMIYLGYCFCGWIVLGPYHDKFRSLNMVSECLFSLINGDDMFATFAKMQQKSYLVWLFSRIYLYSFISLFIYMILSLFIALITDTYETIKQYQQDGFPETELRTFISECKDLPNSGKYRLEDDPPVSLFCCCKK
Nature of the experiment: Dose response cell-based high-throughput screening assay for agonists of the transient receptor potential channel ML3 (TRPML3). [Related pubchem assays: 1526, 1424, 1448 ]. Type of experiment: functional.

For the next experiment, the target named is Ion channel NompC (Danio rerio, UniProt Q7T1G6). Description: Fluorescence counterscreen assay for TRPML3 agonists: dose response cell-based high-throughput screening assay to identify agonists of the transient receptor potential channel N1 (TRPN1). [Related pubchem assays: 1526, 1424, 1448 ]. Format: functional. Background: A counterscreen serves to expose hits that act by an unwanted route or on another target.
Chain of Ion channel NompC (Q7T1G6 whole entry): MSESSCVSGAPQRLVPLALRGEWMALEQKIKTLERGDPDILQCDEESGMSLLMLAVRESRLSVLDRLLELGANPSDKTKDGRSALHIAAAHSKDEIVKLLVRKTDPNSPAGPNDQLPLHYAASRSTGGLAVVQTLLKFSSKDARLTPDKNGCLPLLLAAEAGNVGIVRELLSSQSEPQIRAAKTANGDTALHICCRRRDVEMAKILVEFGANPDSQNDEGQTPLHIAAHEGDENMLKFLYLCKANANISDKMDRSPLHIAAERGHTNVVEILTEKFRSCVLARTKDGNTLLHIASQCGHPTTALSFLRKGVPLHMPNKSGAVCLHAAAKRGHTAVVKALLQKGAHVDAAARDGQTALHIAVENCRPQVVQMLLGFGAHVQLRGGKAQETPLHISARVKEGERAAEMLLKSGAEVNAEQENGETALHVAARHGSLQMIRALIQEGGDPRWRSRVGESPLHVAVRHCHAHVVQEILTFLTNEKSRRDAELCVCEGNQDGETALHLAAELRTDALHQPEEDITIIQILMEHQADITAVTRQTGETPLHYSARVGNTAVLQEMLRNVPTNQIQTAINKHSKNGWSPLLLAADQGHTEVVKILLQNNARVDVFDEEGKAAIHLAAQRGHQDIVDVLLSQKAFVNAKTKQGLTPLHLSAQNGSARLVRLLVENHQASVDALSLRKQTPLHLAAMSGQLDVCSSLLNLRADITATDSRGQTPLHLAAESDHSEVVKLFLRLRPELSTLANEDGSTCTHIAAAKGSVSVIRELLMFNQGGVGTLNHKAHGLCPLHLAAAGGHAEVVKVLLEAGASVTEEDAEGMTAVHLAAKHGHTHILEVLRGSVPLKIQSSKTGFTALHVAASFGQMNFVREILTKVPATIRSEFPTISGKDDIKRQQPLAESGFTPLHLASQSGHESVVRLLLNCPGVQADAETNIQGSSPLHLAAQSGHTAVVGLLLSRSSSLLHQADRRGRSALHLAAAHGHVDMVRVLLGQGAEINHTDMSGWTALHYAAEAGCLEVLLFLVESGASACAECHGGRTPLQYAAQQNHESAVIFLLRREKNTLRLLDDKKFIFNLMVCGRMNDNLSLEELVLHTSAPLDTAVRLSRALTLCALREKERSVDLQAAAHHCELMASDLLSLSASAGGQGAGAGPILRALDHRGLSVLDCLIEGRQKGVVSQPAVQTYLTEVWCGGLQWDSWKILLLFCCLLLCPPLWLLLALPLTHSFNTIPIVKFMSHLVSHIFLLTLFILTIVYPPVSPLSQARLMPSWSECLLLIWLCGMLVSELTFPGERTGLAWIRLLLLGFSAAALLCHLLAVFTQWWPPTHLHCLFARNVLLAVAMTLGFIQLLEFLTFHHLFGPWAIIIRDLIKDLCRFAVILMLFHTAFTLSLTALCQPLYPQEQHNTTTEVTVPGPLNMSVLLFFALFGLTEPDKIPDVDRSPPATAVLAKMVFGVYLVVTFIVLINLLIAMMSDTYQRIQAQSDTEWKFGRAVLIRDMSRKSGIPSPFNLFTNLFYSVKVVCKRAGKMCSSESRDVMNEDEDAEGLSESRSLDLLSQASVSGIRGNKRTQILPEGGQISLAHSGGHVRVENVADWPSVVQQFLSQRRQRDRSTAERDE

A short description of experiment [2]: Trypanosoma cruzi growth suppression in host cells – NIH3T3 host cells, beta-gal luminescence, confirmation (AID 2044).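 Also: intracellular parasites grown in NIH/3T3 mouse fibroblasts as host cells; luminescent beta-galactosidase reporter signal from transgenic T. cruzi replicating inside host cells; inhibitors lower the luminescence signal.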 Type of experiment: functional, cell-based.
Experiment [3] is described as follows: NIH3T3 cell viability loss – ATP luminescence, mouse fibroblasts, counter-screen, dose response (AID 2010).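 Also: cells exposed to compound for about 90 hours before reading.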 Type of experiment: functional, cell-based.
Experiment [4] can be described thus: CellTiter-Glo luminescence survival assay, SW480 colon tumor line, concentration-response curve, half-maximal inhibitory concentration (AID 1117338). Type of experiment: functional.
Experiment [5] can be described thus: RKO cell viability reduction, dose response, CellTiter-Glo luminescence (AID 1117322). Format: functional. (In general: In ATP-based viability assays light output follows the ATP content of the culture.)
A short description of experiment [6]: cytotoxicity toward HCT116 cells – cell-based, CellTiter-Glo luminescence, IC50, dose response (AID 1117332). Type of experiment: functional. To be noted: HCT-116.
Experiment [7] in a line: SNU-C1 cell viability reduction, dose response, CellTiter-Glo luminescence (AID 1117323). Format: functional, cell-based.
The nature of experiment [8]: cytotoxicity toward Colo320 cells – cell-based, CellTiter-Glo luminescence, IC50, dose response (AID 1117334). Type of experiment: functional. Conditions: COLO 320.
Experiment [9] in a line: cytotoxicity toward HT-29 cells – cell-based, CellTiter-Glo luminescence, IC50, dose response (AID 1117330). Format: functional.
Experiment [10] can be described thus: Reduced DLD-1 viability, concentration-response, CellTiter-Glo luminescence (AID 1117352). Format: functional.
A short description of experiment [11]: HCT116 cell viability decrease, GSK3B pretreatment – CellTiter-Glo, IC50, dose response (AID 1117339). Type of experiment: functional. To be noted: HCT-116.
Experiment [12] can be described thus: NIH-3T3 fibroblast cytotoxicity, dose response, cytotoxicity control, cell-based, fluorescence, Alamar Blue, secondary assay (AID 2327).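 Also: NIH-3T3 mouse fibroblasts cultured with fluconazole at 8 µg/mL.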 Type of experiment: functional. (In general: The colour change of resazurin is a common sign of viable cells or microbes.)
Experiment [13] can be described thus: fluconazole-exposed Candida albicans growth modulators – fluorescence, retest, confirmation (AID 2467). Type of experiment: functional, cell-based.
Experiment [14] concerns the target T3, Mannose-6-phosphate isomerase (Homo sapiens, UniProt P34949).
T3 sequence (P34949 whole entry): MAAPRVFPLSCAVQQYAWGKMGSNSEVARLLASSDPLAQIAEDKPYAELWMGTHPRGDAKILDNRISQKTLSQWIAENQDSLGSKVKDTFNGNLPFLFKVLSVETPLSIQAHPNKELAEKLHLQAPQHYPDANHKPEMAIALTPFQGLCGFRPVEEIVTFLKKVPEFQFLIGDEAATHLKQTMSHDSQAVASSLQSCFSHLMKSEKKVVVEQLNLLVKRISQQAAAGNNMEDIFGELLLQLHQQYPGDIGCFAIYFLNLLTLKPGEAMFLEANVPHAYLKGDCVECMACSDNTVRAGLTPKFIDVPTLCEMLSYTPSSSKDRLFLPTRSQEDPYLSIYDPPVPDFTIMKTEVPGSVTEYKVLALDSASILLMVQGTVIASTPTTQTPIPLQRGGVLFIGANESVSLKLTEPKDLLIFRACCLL
Nature of the experiment: MPI enzyme activity inhibition – biochemical, fluorescence intensity, coupled assay, primary screen (AID 1209).

The target in the next experiment is Nonstructural protein 1 (Influenza A virus, UniProt Q194T2). Format: functional, Influenza A virus (A/California/07/2009(H1N1)).
Chain of Nonstructural protein 1 (Q194T2 whole entry): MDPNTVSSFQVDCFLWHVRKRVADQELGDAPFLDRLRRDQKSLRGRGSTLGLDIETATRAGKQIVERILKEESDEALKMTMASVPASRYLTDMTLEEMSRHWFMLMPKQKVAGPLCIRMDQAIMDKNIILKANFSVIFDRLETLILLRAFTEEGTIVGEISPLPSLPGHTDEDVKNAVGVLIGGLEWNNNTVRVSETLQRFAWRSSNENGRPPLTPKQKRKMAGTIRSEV
Experiment [15] has as its target T4, Luciferin 4-monooxygenase (Photinus pyralis, UniProt P08659). Description: Counter Screen for Luciferase-based Assay Positives. [Related pubchem assays: 620, 618, 411 ].
A further experiment concerns HT-1080. Nature of the experiment: HT1080 cell viability loss – fluorescence readout (AID 620). To be noted: Homo sapiens. Format: functional, cell-based.
A short description of experiment [16]: A Cell Based Secondary Assay To Explore Cytotoxicity of Compounds that Sensitize Mycobacterium Tuberculosis to Beta-Lactam Antibiotics. Format: functional.
Experiment [17] has as its target NACHT, LRR and PYD domains-containing protein 3 (Homo sapiens, UniProt Q96P20). Nature of the experiment: NALP3 inhibitors in yeast, dose response, luminescent (AID 488799). Format: functional.
Experiment [18] concerns the target Eukaryotic translation initiation factor 4H (Homo sapiens, UniProt Q15056). Nature of the experiment: inhibitors of translation initiation factor eIF4H – SAR follow-up (AID 435011). Format: functional.
Experiment [19] concerns the target Polyadenylate-binding protein 1 (Homo sapiens, UniProt P11940). Description: PABP inhibition in translation initiation, SAR follow-up (AID 435018). Type of experiment: functional.
The nature of experiment [20]: rise of 2N DNA cells, HeLa – IC50, dose response (AID 1117349). Type of experiment: functional, cell-based.
Experiment [21] is described as follows: rise of 4N DNA cells, HeLa – IC50, dose response (AID 1117351). Format: functional, cell-based.
A short description of experiment [22]: microbe, parasite or virus in culture. Format: functional. Conditions: Mycobacterium tuberculosis.
The target of experiment [23] is T4, Luciferin 4-monooxygenase. Nature of the experiment: inhibition of purified Photinus pyralis luciferase – biochemical, luminescence, dose response (AID 1891).
Experiment [24] in a line: Luminescence Cell-Based Dose Confirmation HTS to Identify Inhibitors of Platelet Dense Granule Release. [Related pubchem assays: 1663 (Primary HTS), 1678 (Summary of Project)]. Type of experiment: functional.
Experiment [25] addresses T3, Mannose-6-phosphate isomerase. Nature of the experiment: MPI inhibition at elevated mannose 6-phosphate – biochemical, fluorescence intensity, high mannose 6-phosphate, primary screen (AID 1220).

Chain of Polyadenylate-binding protein 1 (P11940 whole entry): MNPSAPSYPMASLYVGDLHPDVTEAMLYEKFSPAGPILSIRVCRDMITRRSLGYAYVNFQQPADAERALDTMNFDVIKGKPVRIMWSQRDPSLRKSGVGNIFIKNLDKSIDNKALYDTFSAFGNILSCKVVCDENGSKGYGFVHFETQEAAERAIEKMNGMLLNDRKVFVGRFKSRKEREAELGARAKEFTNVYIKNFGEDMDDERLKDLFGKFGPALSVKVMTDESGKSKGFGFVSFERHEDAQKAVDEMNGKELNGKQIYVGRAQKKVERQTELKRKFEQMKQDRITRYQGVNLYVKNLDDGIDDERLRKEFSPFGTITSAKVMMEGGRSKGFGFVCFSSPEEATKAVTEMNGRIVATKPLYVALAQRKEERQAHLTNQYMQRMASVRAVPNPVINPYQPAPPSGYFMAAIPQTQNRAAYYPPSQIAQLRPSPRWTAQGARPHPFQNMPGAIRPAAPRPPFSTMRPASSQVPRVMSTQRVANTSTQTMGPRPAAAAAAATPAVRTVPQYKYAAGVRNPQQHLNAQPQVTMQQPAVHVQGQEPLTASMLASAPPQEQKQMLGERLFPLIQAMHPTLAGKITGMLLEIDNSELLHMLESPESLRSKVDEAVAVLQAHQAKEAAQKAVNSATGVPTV
T4 sequence (P08659 whole entry): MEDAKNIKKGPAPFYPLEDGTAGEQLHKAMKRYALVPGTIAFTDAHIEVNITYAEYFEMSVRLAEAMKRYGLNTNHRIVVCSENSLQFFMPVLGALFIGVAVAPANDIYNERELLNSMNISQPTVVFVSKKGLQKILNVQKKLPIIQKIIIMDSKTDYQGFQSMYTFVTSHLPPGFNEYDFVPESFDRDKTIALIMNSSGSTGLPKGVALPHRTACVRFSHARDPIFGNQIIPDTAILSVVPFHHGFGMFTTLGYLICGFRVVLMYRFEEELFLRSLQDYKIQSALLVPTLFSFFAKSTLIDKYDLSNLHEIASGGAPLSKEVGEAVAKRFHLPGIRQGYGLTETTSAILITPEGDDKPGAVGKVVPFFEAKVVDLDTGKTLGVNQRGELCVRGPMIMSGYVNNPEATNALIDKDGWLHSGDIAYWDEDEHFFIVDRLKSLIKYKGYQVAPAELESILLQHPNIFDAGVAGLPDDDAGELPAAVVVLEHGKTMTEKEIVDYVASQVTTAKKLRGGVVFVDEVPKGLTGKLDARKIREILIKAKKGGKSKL
Chain of NACHT, LRR and PYD domains-containing protein 3 (Q96P20 whole entry, the tested form may be a part): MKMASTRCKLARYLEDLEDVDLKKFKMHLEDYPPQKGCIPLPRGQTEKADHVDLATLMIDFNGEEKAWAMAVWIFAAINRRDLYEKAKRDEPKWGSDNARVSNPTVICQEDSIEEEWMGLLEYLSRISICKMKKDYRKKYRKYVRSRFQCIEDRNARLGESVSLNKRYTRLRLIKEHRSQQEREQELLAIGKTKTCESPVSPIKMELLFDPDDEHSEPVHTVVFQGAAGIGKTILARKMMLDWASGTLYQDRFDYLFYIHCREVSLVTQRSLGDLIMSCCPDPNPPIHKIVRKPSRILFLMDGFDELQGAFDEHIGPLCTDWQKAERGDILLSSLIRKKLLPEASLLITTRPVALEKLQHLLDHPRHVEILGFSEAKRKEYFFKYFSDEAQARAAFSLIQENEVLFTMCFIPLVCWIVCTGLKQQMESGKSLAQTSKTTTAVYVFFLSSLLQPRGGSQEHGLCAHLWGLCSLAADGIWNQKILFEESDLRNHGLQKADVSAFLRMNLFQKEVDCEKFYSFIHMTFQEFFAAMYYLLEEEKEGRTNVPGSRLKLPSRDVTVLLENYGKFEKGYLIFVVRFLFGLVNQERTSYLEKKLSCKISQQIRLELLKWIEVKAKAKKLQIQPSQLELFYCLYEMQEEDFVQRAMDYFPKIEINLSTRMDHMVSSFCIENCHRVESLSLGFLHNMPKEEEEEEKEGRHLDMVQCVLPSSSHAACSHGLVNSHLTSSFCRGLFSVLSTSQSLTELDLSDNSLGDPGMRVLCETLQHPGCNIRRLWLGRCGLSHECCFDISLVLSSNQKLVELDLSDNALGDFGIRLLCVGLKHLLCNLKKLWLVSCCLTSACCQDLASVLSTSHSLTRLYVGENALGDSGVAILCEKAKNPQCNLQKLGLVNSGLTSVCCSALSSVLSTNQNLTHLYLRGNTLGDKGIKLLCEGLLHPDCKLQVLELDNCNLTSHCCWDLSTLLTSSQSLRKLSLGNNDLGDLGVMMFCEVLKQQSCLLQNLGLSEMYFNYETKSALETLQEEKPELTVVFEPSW

Consider `Cc1cccc(N2C(=O)NC(=O)/C(=C\c3cnn(-c4ccccc4)c3)C2=O)c1`, for which the EC50 in experiment [1] is 13 µM (active). Further, the AC50 on Cytochrome P450 2C19 is 39.8 µM (inconclusive); on Cytochrome P450 1A2, 25.1 µM (inconclusive); at Cytochrome P450 2C9 it was 39.8 µM (inconclusive).
With `COc1ccccc1N(C)S(=O)(=O)c1ccc(Cl)c(C(=O)OCc2c(C)noc2C)c1`, the EC50 was 3.01 µM (active) on Mucolipin-3 and > 29.9 µM (not active) on Ion channel NompC.
For the molecule `CCOc1ccc(S(=O)(=O)NC(C)(C)C)cc1-c1nc(O)c2c(n1)c(C(C)(C)C)nn2C`, the EC50 in experiment [2] is 1.26 µM (active); at Mucolipin-3, 0.781 µM (active); in experiment [3], 8.45 µM (active); at Ion channel NompC, > 29.9 µM (not active).
For `CCCCCCCCOC(=O)c1ccccc1C(=O)OCCCCCCCC`, the IC50 in [4], in experiment [5], in experiment [6], in experiment [7], in experiment [8] and in [9] was > 20 µM (inactive) each time. The IC50 in experiment [10] and in [11] was > 20 µM (inactive) in each case.
On to `OCCN1CCN(Cc2cc(Cl)c3cccnc3c2O)CC1`, for which the EC50 is 121 µM (active) in experiment [12] and > 38 µM (not active) in [13]. Moreover, the IC50 in experiment [14] is 4.09 µM (active); at Nonstructural protein 1, 3.93 µM (active).
In the case of `Cc1ccc(OCc2nc(-c3ccccn3)no2)c(Br)c1`, the figures for the EC50 (in experiment [15]; in the experiment with HT-1080) were < 0.2 µM (active) and > 50 µM (not active), respectively.
Take `Cc1ccc(N=C(S)Nc2ncccc2C)c(C)c1`: in experiment [16], the CC50 is > 40 µM (active).
As for `COc1ccc(N(CC(=O)N2CCCCC2)S(=O)(=O)c2ccccc2)c(OC)c1`, the EC50 on Mucolipin-3 was 1.84 µM (active); at Ion channel NompC it was > 9.99 µM (not active).
On to `CCC1Nc2ncnc(N3CCN(c4ccccn4)CC3)c2N(Cc2ccc(Cl)cc2)C1=O` (stereo unspecified), for which the IC50 in [17] is 3.16 µM (active).
Consider `OCCCn1c(C2CCCN2c2nc(-c3ccc(Cl)cc3)cs2)nc2cc(Cl)c(Cl)cc21` (stereo unspecified), for which the CC50 in experiment [16] is > 40 µM (active).
As to `Cc1ccc(C)c(NC(=O)C2CCN(C(=O)c3cccs3)CC2)c1`, the IC50 in experiment [18] and in experiment [19] was > 100 µM (inactive) in each case.
In the case of `COc1cc([N+](=O)[O-])ccc1NC(=O)COC(=O)c1ccc(N2CCCC2=O)cc1`, the IC50 in experiment [18] and in experiment [19] was > 100 µM (inactive) each time.
With `O=C(Nc1ccc(Br)cc1)C1CCCN1C(=O)Oc1ccccc1` (stereo unspecified), the IC50 in [18] and in experiment [19] was > 100 µM (inactive) throughout.
In the case of `O[C@@H](CNC[C@H](O)[C@H]1CCc2cc(F)ccc2O1)[C@@H]1CCc2cc(F)ccc2O1`, the IC50 was > 10 µM (inactive) in experiment [20]; 3.6 µM (active) in experiment [4]; 3.28 µM (active) in [5]; 6.48 µM (inactive) in experiment [6]; 5.09 µM (inactive) in experiment [7]; > 20 µM (inactive) in experiment [8]. Further, the IC50 in [21] was > 10 µM (inactive); in experiment [9] it was 4.5 µM (active); in experiment [10], 15.3 µM (inactive); in experiment [11], 2.4 µM (active).
Take `C=CCc1c(C)nc(C)nc1N/N=C/c1ccccc1O`: the CC50 in experiment [22] was > 40 µM (active). The IC50 in experiment [17] was 45.5 µM (active); on Nonstructural protein 1, 18.4 µM (active).
Consider `COc1ccc(C(=O)/C=C/Nc2cccc(O)c2)cc1`, for which the EC50 in [15] is 0.25 µM (active); in experiment [23], 0.793 µM (active); in experiment [24], 5.26 µM (active); with HT-1080, > 50 µM (not active).
For `CCOc1ccc(/C=N/c2cccc3ncccc23)cc1`, the IC50 in experiment [14] and in experiment [25] was > 50 µM (not active) in each case.
Turning to `Cc1ccccc1C(=O)Nc1ccc(C(=O)N2CCCC(N(C)C)c3ccccc32)cc1` (stereo unspecified) [MOZAVAPTAN], the IC50 in experiment [20] and in experiment [21] was > 10 µM (inactive) each time.
